In patent publication US20070128217A1 (priority 2003, published 2007):

Experiments:
[1] = tested on: antibodies in sera from SARS patients (sera 1a, 1b, 2, 6, 37, 62, London, SARS-yellow, SARS-green); assay type: binding, human; design: Binding of serum 6 to linear peptides of protein X1 of SARS-CoV Urbani / Binding of serum 37 to linear peptides of protein X1 of SARS-CoV Urbani / Binding of serum 6 to looped/cyclic peptide (PEPSCAN-ELISA) / Binding of serum 37 to looped/cyclic peptide (PEPSCAN-ELISA) / Binding of serum 37 to looped/cyclic peptides of protein X1 of SARS-CoV Urbani / Binding of serum 6 to linear peptides of protein X2 / Binding of serum 37 to linear peptides of protein X2 / Binding of serum 37 to looped/cyclic peptides of protein X2 of SARS-CoV Urbani / Binding of serum 6 to linear peptides of protein M of SARS-CoV Urbani / Binding of serum 37 to linear peptides of protein M of SARS-CoV Urbani / Binding of serum 6 to looped/cyclic peptides of protein M of SARS-CoV Urbani / Binding of serum 37 to looped/cyclic peptides of protein M of SARS-CoV Urbani / Binding of serum 6 to linear peptides of protein X3 of SARS-CoV Urbani / Binding of serum 37 to linear peptides of protein X3 of SARS-CoV Urbani / Binding of serum 37 to looped/cyclic peptides of protein X3 of SARS-CoV Urbani / Binding of serum 6 to linear peptides of protein X4 of SARS-CoV Urbani / Binding of serum 37 to linear peptides of protein X4 of SARS-CoV Urbani / Binding of serum 37 to looped/cyclic peptides of protein X4 of SARS-CoV Urbani / Binding of serum 6 to linear peptides of protein X5 of SARS-CoV Urbani / Binding of serum 37 to linear peptides of protein X5 of SARS-CoV Urbani / Binding of serum 37 to looped/cyclic peptides of protein X5 of SARS-CoV Urbani / Binding of serum 6 to linear peptides of protein N of SARS-CoV Urbani / Binding of serum 37 to linear peptides of protein N of SARS-CoV Urbani / Binding of serum 6 to linear peptide (PEPSCAN-ELISA) / Binding of serum 1a to looped/cyclic peptides of protein N of SARS-CoV Urbani / Binding of serum 1b to looped/cyclic peptides of protein N of SARS-CoV Urbani / Binding of serum 2 to looped/cyclic peptides of protein N of SARS-CoV Urbani / Binding of serum 6 to looped/cyclic peptides of protein N of SARS-CoV Urbani / Binding of serum 37 to looped/cyclic peptides of protein N of SARS-CoV Urbani / Binding of serum 62 to looped/cyclic peptides of protein N of SARS-CoV Urbani / Binding of serum London to looped/cyclic peptides of protein N of SARS-CoV Urbani / Binding of serum SARS-green to looped/cyclic peptides of protein N of SARS-CoV Urbani: unit not given here
[2] = tested on: control sera (pooled serum of ten healthy LUMC hospital workers; commercial negative donor pooled serum from the Dutch bloodbank); assay type: binding, human; design: Binding of Control serum LUMC to linear peptides / Binding of Control serum Blood-bank to linear peptides / Binding of Control serum LUMC to looped peptides / Binding of Control Serum Blood-Bank to Looped peptides / Binding of Control serum LUMC to linear peptides of the protein M of SARS-CoV Urbani / Binding of Control serum Blood-bank to linear peptides of the protein M of SARS-CoV Urbani / Binding of Control serum LUMC to looped peptides of the protein M of SARS-CoV Urbani / Binding of Control Serum Blood-Bank to Looped peptides of the protein M of SARS-CoV Urbani: unit not given here
[3] = tested on: rabbit serum obtained by immunizing a rabbit with the SARS-CoV strain Frankfurt 1; assay type: binding; design: Binding of a rabbit serum to linear peptides / Binding of a rabbit serum to looped peptides / Rabbit serum linear peptides / Rabbit serum looped peptides / Binding of a rabbit serum to linear peptides of protein N of SARS-CoV Urbani (Rabbit serum linear peptides) / Binding of a rabbit serum to looped/cyclic peptides of protein N of SARS-CoV Urbani (Rabbit serum looped peptides): unit not given here

TIPLQASLPFGWLVI
0.5: Binding of serum 1b to linear peptides of protein X1 of SARS-CoV Urbani [1] | Binding of serum 2 to looped/cyclic peptide (PEPSCAN-ELISA) [1] | Binding of serum 6 to linear peptides of protein X1 of SARS-CoV Urbani [1] | Binding of serum SARS-yellow to looped/cyclic peptide (PEPSCAN-ELISA) [1] | Binding of a rabbit serum to looped peptides [3]
0.3: Binding of serum London to linear peptides of protein X1 of SARS-CoV Urbani [1]
0.7: Binding of serum 37 to linear peptides of protein X1 of SARS-CoV Urbani [1] | Binding of serum 62 to looped/cyclic peptide (PEPSCAN-ELISA) [1] | Binding of Control Serum Blood-Bank to Looped peptides [2] | Binding of Control serum LUMC to linear peptides [2] | Binding of Control serum LUMC to looped peptides [2]
0.2: Binding of serum London to looped/cyclic peptide (PEPSCAN-ELISA) [1]
0.1: Binding of a rabbit serum to linear peptides [3]
0.8: Binding of serum 1a to linear peptides of protein X1 of SARS-CoV Urbani [1] | Binding of serum 62 to linear peptides of protein X1 of SARS-CoV Urbani [1] | Binding of Control serum Blood-bank to linear peptides [2]
0.4: Binding of serum 1b to looped/cyclic peptide (PEPSCAN-ELISA) [1] | Binding of serum 6 to looped/cyclic peptide (PEPSCAN-ELISA) [1] | Binding of serum SARS-green to linear peptides of protein X1 of SARS-CoV Urbani [1] | Binding of serum SARS-green to looped/cyclic peptide (PEPSCAN-ELISA) [1] | Binding of serum SARS-yellow to linear peptides of protein X1 of SARS-CoV Urbani [1]
0.6: Binding of serum 1a to looped/cyclic peptide (PEPSCAN-ELISA) [1] | Binding of serum 2 to linear peptides of protein X1 of SARS-CoV Urbani [1] | Binding of serum 37 to looped/cyclic peptide (PEPSCAN-ELISA) [1]

IMLLQFAYSNRNRFL
0.7: Binding of serum 1a to linear peptides of protein M of SARS-CoV Urbani [1]
0.3: Binding of serum 62 to linear peptides of protein M of SARS-CoV Urbani [1] | Binding of serum London to linear peptides of protein M of SARS-CoV Urbani [1] | Binding of serum SARS-green to looped/cyclic peptides of protein M of SARS-CoV Urbani [1]
0.5: Binding of serum 1b to linear peptides of protein M of SARS-CoV Urbani [1] | Binding of serum 62 to looped/cyclic peptides of protein M of SARS-CoV Urbani [1] | Binding of Control Serum Blood-Bank to Looped peptides of the protein M of SARS-CoV Urbani [2] | Binding of Control serum Blood-bank to linear peptides of the protein M of SARS-CoV Urbani [2] | Rabbit serum looped peptides [3]
0.2: Binding of serum SARS-yellow to linear peptides of protein M of SARS-CoV Urbani [1] | Rabbit serum linear peptides [3]
0.6: Binding of serum 1a to looped/cyclic peptides of protein M of SARS-CoV Urbani [1] | Binding of serum 2 to looped/cyclic peptides of protein M of SARS-CoV Urbani [1] | Binding of serum 37 to looped/cyclic peptides of protein M of SARS-CoV Urbani [1] | Binding of serum London to looped/cyclic peptides of protein M of SARS-CoV Urbani [1] | Binding of serum SARS-yellow to looped/cyclic peptides of protein M of SARS-CoV Urbani [1] | Binding of Control serum LUMC to linear peptides of the protein M of SARS-CoV Urbani [2] | Binding of Control serum LUMC to looped peptides of the protein M of SARS-CoV Urbani [2]
0.4: Binding of serum 1b to looped/cyclic peptides of protein M of SARS-CoV Urbani [1] | Binding of serum 2 to linear peptides of protein M of SARS-CoV Urbani [1] | Binding of serum 6 to linear peptides of protein M of SARS-CoV Urbani [1] | Binding of serum 37 to linear peptides of protein M of SARS-CoV Urbani [1] | Binding of serum SARS-green to linear peptides of protein M of SARS-CoV Urbani [1]
1.0: Binding of serum 6 to looped/cyclic peptides of protein M of SARS-CoV Urbani [1]

STNLCTHSFRKKQVR
0.8: Binding of Control serum LUMC to linear peptides [2] | Binding of Control serum LUMC to looped peptides [2]
0.7: Binding of a rabbit serum to linear peptides [3]
0.2: Binding of serum London to looped/cyclic peptides of protein X2 of SARS-CoV Urbani [1] | Binding of serum SARS-green to looped/cyclic peptides of protein X2 of SARS-CoV Urbani [1] | Binding of a rabbit serum to looped peptides [3]
recognized in linear form: Recognition of the peptide by sera of SARS-CoV infected individuals, and form (linear, looped/cyclic) in which it is recognized [1]
0.6: Binding of serum 6 to looped/cyclic peptides of protein X2 of SARS-CoV Urbani [1]
0.5: Binding of serum 1a to looped/cyclic peptides of protein X2 of SARS-CoV Urbani [1] | Binding of serum 2 to looped/cyclic peptides of protein X2 of SARS-CoV Urbani [1] | Binding of serum 37 to looped/cyclic peptides of protein X2 of SARS-CoV Urbani [1] | Binding of serum 62 to looped/cyclic peptides of protein X2 of SARS-CoV Urbani [1] | Binding of serum SARS-yellow to looped/cyclic peptides of protein X2 of SARS-CoV Urbani [1] | Binding of Control Serum Blood-Bank to Looped peptides [2]
0.3: Binding of serum 1b to looped/cyclic peptides of protein X2 of SARS-CoV Urbani [1]
0.9: Binding of Control serum Blood-bank to linear peptides [2]

TTSLSLHKLLQTLVL
0.5: Binding of serum 1a to linear peptides of protein X2 [1] | Binding of serum 1a to looped/cyclic peptides of protein X2 of SARS-CoV Urbani [1] | Binding of serum 1b to linear peptides of protein X2 [1] | Binding of serum 6 to linear peptides of protein X2 [1] | Binding of serum 6 to looped/cyclic peptides of protein X2 of SARS-CoV Urbani [1] | Binding of serum 37 to linear peptides of protein X2 [1] | Binding of serum 37 to looped/cyclic peptides of protein X2 of SARS-CoV Urbani [1] | Binding of serum 62 to linear peptides of protein X2 [1] | Binding of serum London to linear peptides of protein X2 [1] | Binding of serum SARS-yellow to looped/cyclic peptides of protein X2 of SARS-CoV Urbani [1]
0.3: Binding of serum 2 to linear peptides of protein X2 [1] | Binding of serum SARS-green to looped/cyclic peptides of protein X2 of SARS-CoV Urbani [1] | Binding of serum SARS-yellow to linear peptides of protein X2 [1]
0.1: Binding of a rabbit serum to linear peptides [3]
0.4: Binding of serum 1b to looped/cyclic peptides of protein X2 of SARS-CoV Urbani [1] | Binding of serum 2 to looped/cyclic peptides of protein X2 of SARS-CoV Urbani [1] | Binding of Control serum LUMC to linear peptides [2] | Binding of a rabbit serum to looped peptides [3]
1.3: Binding of serum London to looped/cyclic peptides of protein X2 of SARS-CoV Urbani [1]
0.6: Binding of serum 62 to looped/cyclic peptides of protein X2 of SARS-CoV Urbani [1] | Binding of serum SARS-green to linear peptides of protein X2 [1] | Binding of Control Serum Blood-Bank to Looped peptides [2] | Binding of Control serum Blood-bank to linear peptides [2] | Binding of Control serum LUMC to looped peptides [2]

LACLCKHKKVSTNLC
0.7: Binding of Control serum LUMC to linear peptides [2]
0.3: Binding of serum 1a to looped/cyclic peptides of protein X2 of SARS-CoV Urbani [1] | Binding of serum 1b to looped/cyclic peptides of protein X2 of SARS-CoV Urbani [1] | Binding of serum 37 to looped/cyclic peptides of protein X2 of SARS-CoV Urbani [1] | Binding of serum SARS-yellow to looped/cyclic peptides of protein X2 of SARS-CoV Urbani [1] | Binding of Control Serum Blood-Bank to Looped peptides [2] | Binding of a rabbit serum to linear peptides [3] | Binding of a rabbit serum to looped peptides [3]
0.4: Binding of serum 62 to looped/cyclic peptides of protein X2 of SARS-CoV Urbani [1] | Binding of Control serum LUMC to looped peptides [2]
recognized in linear form: Recognition of the peptide by sera of SARS-CoV infected individuals, and form (linear, looped/cyclic) in which it is recognized [1]
0.8: Binding of Control serum Blood-bank to linear peptides [2]
0.2: Binding of serum 2 to looped/cyclic peptides of protein X2 of SARS-CoV Urbani [1] | Binding of serum 6 to looped/cyclic peptides of protein X2 of SARS-CoV Urbani [1] | Binding of serum London to looped/cyclic peptides of protein X2 of SARS-CoV Urbani [1] | Binding of serum SARS-green to looped/cyclic peptides of protein X2 of SARS-CoV Urbani [1]

VVTEGDGISTPKLKE
0.3: Binding of serum 1a to looped/cyclic peptides of protein X1 of SARS-CoV Urbani [1] | Binding of serum 1b to looped/cyclic peptides of protein X1 of SARS-CoV Urbani [1] | Binding of serum 2 to linear peptides of protein X1 of SARS-CoV Urbani [1] | Binding of serum 37 to looped/cyclic peptides of protein X1 of SARS-CoV Urbani [1] | Binding of serum 62 to linear peptides of protein X1 of SARS-CoV Urbani [1] | Binding of serum 62 to looped/cyclic peptides of protein X1 of SARS-CoV Urbani [1] | Binding of serum London to linear peptides of protein X1 of SARS-CoV Urbani [1] | Binding of Control Serum Blood-Bank to Looped peptides [2] | Binding of Control serum Blood-bank to linear peptides [2] | Binding of Control serum LUMC to looped peptides [2]
0.4: Binding of serum 1b to linear peptides of protein X1 of SARS-CoV Urbani [1] | Binding of serum 37 to linear peptides of protein X1 of SARS-CoV Urbani [1] | Binding of a rabbit serum to looped peptides [3]
0.1: Binding of serum 2 to looped/cyclic peptides of protein X1 of SARS-CoV Urbani [1] | Binding of serum SARS-green to linear peptides of protein X1 of SARS-CoV Urbani [1] | Binding of serum SARS-green to looped/cyclic peptides of protein X1 of SARS-CoV Urbani [1] | Binding of serum SARS-yellow to linear peptides of protein X1 of SARS-CoV Urbani [1] | Binding of a rabbit serum to linear peptides [3]
0.5: Binding of serum 1a to linear peptides of protein X1 of SARS-CoV Urbani [1]
0.2: Binding of serum 6 to linear peptides of protein X1 of SARS-CoV Urbani [1] | Binding of serum 6 to looped/cyclic peptides of protein X1 of SARS-CoV Urbani [1] | Binding of serum London to looped/cyclic peptides of protein X1 of SARS-CoV Urbani [1] | Binding of serum SARS-yellow to looped/cyclic peptides of protein X1 of SARS-CoV Urbani [1] | Binding of Control serum LUMC to linear peptides [2]
